Common to all, as to format: cell-based
One test has as its target T1, human PGD receptor (Homo sapiens, UniProt Q13258).
T1 sequence (Q13258 1-359): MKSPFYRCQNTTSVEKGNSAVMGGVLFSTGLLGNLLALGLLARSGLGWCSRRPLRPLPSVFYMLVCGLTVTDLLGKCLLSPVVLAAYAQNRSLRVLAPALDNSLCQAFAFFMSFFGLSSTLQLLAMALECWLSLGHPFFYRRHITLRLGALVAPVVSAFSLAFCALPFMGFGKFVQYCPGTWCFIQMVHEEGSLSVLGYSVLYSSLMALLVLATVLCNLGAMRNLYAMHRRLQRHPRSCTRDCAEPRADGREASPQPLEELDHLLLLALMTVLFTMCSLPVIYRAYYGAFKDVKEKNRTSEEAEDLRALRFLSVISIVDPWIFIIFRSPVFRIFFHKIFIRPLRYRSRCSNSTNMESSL
Nature of the test: cAMP antagonism test on the human prostaglandin D receptor (HTRF cAMP detection). Conditions: selectivity towards hDP, IC50 measured by cAMP antagonism test. The method, boiled down:
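Cells pre-mixed with cAMP-d2 were preincubated with compound (0.8 nM–16.5 μM) for 20 min at RT, then stimulated with 3× PGD2 solution (6 nM, in PBS-IBMX) for 30 min at RT. After lysis (20 min), HTRF read at 665/620 nm; antagonism seen as rise in FRET ratio.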

For test [1], the target named is EP2 subtype of the human PGE2 receptor (Homo sapiens, UniProt P43116). Nature of the test: cAMP antagonism test on the human EP2 receptor (HTRF cAMP detection). Particulars: hEP2 receptor, read-out: Antagonism hEP2 IC50. The method, boiled down: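 Cells expressing human EP2 preincubated 20 min at RT with compound (0.8 nM–16.5 μM), then stimulated 60 min with PGE2 (3× solution 1.5 nM) in PBS-IBMX. After 20 min lysis, cAMP measured by competitive HTRF with cAMP-d2 and Eu cryptate anti-cAMP antibody (665/620 nm ratio).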
Chain of EP2 subtype of the human PGE2 receptor (P43116 whole entry): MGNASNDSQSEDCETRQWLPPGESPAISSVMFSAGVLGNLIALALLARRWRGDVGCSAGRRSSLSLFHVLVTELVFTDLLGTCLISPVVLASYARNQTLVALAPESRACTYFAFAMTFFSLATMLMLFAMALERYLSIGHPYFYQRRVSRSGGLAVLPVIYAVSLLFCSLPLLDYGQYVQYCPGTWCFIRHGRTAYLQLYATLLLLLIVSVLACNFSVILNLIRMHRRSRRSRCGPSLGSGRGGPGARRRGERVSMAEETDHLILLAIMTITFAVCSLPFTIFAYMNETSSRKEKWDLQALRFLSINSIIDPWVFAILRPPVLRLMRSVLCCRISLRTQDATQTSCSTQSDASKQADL

Test [2] addresses EP4 subtype of the human PGE2 receptor (Homo sapiens, UniProt P35408). The test is described as follows: cAMP antagonism test on the human EP4 receptor (HTRF cAMP detection). Conditions: selectivity towards hEP4, IC50 measured by cAMP antagonism test. Summed up: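 Cells expressing human EP4 preincubated 20 min at RT with compound (0.8 nM–16.5 μM), then stimulated with PGE2 (0.3 nM in 3× solution, with IBMX) 60 min at RT. After lysis, cAMP measured by HTRF competition (665/620 nm ratio); antagonism seen as rise in FRET signal.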

Each structure is given as a SMILES string.

Chain of EP4 subtype of the human PGE2 receptor (P35408 whole entry): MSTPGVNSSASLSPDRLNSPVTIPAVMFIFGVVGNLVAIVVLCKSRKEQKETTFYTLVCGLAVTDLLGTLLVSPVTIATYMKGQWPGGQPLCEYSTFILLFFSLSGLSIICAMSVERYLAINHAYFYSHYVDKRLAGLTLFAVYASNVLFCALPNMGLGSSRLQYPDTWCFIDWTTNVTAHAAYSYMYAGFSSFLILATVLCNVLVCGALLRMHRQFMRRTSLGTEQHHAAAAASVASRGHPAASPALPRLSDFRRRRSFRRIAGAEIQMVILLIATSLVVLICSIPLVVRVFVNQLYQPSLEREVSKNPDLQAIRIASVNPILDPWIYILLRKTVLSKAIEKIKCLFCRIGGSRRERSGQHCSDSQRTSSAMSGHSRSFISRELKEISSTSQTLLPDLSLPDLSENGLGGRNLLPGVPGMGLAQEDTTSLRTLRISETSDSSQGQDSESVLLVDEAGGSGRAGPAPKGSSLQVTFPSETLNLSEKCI

With `Cc1c(C(=O)NCC2CCCCO2)ccc2nn(CC3CN(C(=O)c4ccc(Cl)cc4)C3)cc12` (racemic) [Example 144, (+/−)-2-{[1-(4-chlorobenzoyl)azetidin-3-yl]methyl}-4-methyl-N-(3,4,5,6-tetrahydro-2H-pyran-2-ylmethyl)-2H-indazol-5-carboxamide], the “Selectivity hEP2/hDP” value at human PGD receptor is listed as “xxx (xxx > 100)”. The 50% inhibitory concentration (IC50) in test [1] turned out to be 50.8 nM. The “Selectivity hEP2/hEP4” value in test [2] was “xxx (xxx > 100)”.

In the case of `COCCNC(=O)c1ccc2nn(CC3CN(C(=O)c4ccc(C(F)(F)F)cc4F)C3)cc2c1OC` [Example 255, 2-({1-[2-fluoro-4-(trifluoromethyl)benzoyl]azetidin-3-yl}methyl)-4-methoxy-N-(2-methoxyethyl)-2H-indazol-5-carboxamide], at human PGD receptor, the “Selectivity hEP2/hDP” value was “xxx (xxx > 100)”. Also, the IC50 in test [1] is 83.5 nM. In addition, in test [2], the “Selectivity hEP2/hEP4” value is “xxx (xxx > 100)”.

For the compound `COc1ccc(-c2ccc(C(=O)N3CCC(Cn4cc5c(C)c(C(=O)NCC(F)(F)F)ccc5n4)CC3)cc2)c(C)c1` [Example 318, 2-({1-[(4′-methoxy-2′-methylbiphenyl-4-yl)carbonyl]piperidin-4-yl}methyl)-4-methyl-N-(2,2,2-trifluoroethyl)-2H-indazol-5-carboxamide], the “Selectivity hEP2/hDP” value at human PGD receptor is recorded as “xxx (xxx > 100)”. Also, in test [1], the concentration for half-maximal inhibition (IC50) amounted to 26.3 nM. Besides, the “Selectivity hEP2/hEP4” value in test [2] is on record as “xxx (xxx > 100)”.

For the compound `COC(C)CNC(=O)c1ccc2nn(CC3CN(C(=O)c4ccc(Cl)cc4)C3)cc2c1C` (single isomer, unassigned) [Example 140, (S or R)-2-{[1-(4-chlorobenzoyl)azetidin-3-yl]methyl}-N-(2-methoxypropyl)-4-methyl-2H-indazol-5-carboxamide], at human PGD receptor, the “Selectivity hEP2/hDP” value was “xxx (xxx > 100)”. Besides, the concentration for half-maximal inhibition (IC50) in test [1] stood at 55.3 nM. Further, the “Selectivity hEP2/hEP4” value in test [2] was “xxx (xxx > 100)”.

Regarding `Cc1c(C(=O)NCC2COCCO2)ccc2nn(CC3CCN(C(=O)c4ccc(Cl)cc4)CC3)cc12` (racemic) [Example 413, (+/−)-2-{[1-(4-chlorobenzoyl)piperidin-4-yl]methyl}-N-(1,4-dioxan-2-ylmethyl)-4-methyl-2H-indazol-5-carboxamide], the “Selectivity hEP2/hDP” value on human PGD receptor was “xxx (xxx > 100)”. The IC50 in test [1] was 37.8 nM. The “Selectivity hEP2/hEP4” value in test [2] is “xxx (xxx > 100)”.

In the case of `COCCNC(=O)c1ccc2nn(CC3CN(C(=O)c4ccc(Cl)cc4F)C3)cc2c1OC` [Example 257, 2-{[1-(4-chloro-2-fluorobenzoyl)azetidin-3-yl]methyl}-4-methoxy-N-(2-methoxyethyl)-2H-indazol-5-carboxamide], on human PGD receptor, the “Selectivity hEP2/hDP” value was “xxx (xxx > 100)”. Moreover, the IC50 in test [1] turned out to be 102 nM. In addition, the “Selectivity hEP2/hEP4” value in test [2] is recorded as “xxx (xxx > 100)”.

For `COCCNC(=O)c1ccc2nn(CC3CCN(C(=O)c4ccc(-c5ccno5)cc4)CC3)cc2c1C` [Example 37, N-(2-methoxyethyl)-4-methyl-2-({1-[4-(isoxazol-5-yl)-benzoyl]piperidin-4-yl}methyl)-2H-indazol-5-carboxamide], the “Selectivity hEP2/hDP” value at human PGD receptor is on record as “xxx (xxx > 100)”. In test [1], the IC50 stood at 104 nM. Besides, the “Selectivity hEP2/hEP4” value in test [2] is listed as “xxx (xxx > 100)”.

On to `Cc1c(C(=O)NCCOCC(F)(F)F)ccc2nn(CC3CCN(C(=O)c4ccc(C(F)(F)F)cc4)CC3)cc12` [Example 93, 4-methyl-N-[2-(2,2,2-trifluoro-ethoxy)ethyl]-2-({1-[4-(trifluoro-methyl)benzoyl]-piperidin-4-yl}-methyl)-2H-indazol-5-carboxamide], for which the “Selectivity hEP2/hDP” value on human PGD receptor is “xxx (xxx > 100)”. Moreover, the IC50 in test [1] worked out at 11.5 nM. Moreover, in test [2], the “Selectivity hEP2/hEP4” value is reported as “xxx (xxx > 100)”.

As for `COc1ccc(-c2ccc(C(=O)N3CCC(Cn4cc5c(C)c(C(=O)NCC(F)(F)F)ccc5n4)CC3)cc2)cn1` [Example 322, 2-({1-[4-(6-methoxypyridin-3-yl)benzoyl]piperidin-4-yl}methyl)-4-methyl-N-(2,2,2-trifluoroethyl)-2H-indazol-5-carboxamide], the “Selectivity hEP2/hDP” value on human PGD receptor is reported as “xxx (xxx > 100)”. Further, in test [1], the IC50 worked out at 76.2 nM. Further, the “Selectivity hEP2/hEP4” value in test [2] was “xxx (xxx > 100)”.

Turning to `COCCNC(=O)c1ccc2nn(CC3CCN(C(=O)c4ccc(-n5cccn5)cc4)CC3)cc2c1C` [Example 38, N-(2-methoxyethyl)-4-methyl-2-({1-[4-(1H-pyrazol-1-yl)-benzoyl]piperidin-4-yl}methyl)-2H-indazol-5-carboxamide], at human PGD receptor, the “Selectivity hEP2/hDP” value is given as “xxx (xxx > 100)”. In addition, the IC50 in test [1] was 28.1 nM. The “Selectivity hEP2/hEP4” value in test [2] is listed as “xxx (xxx > 100)”.

Take `COCCNC(=O)c1ccc2nn(CC3CN(C(=O)c4ccc(Br)cc4)C3)cc2c1OC` [Example 216, 2-{[1-(4-bromobenzoyl)azetidin-3-yl]methyl}-4-methoxy-N-(2-methoxyethyl)-2H-indazol-5-carboxamide]: the “Selectivity hEP2/hDP” value at human PGD receptor is given as “xxx (xxx > 100)”. For the same compound, the IC50 in test [1] came to 86.1 nM. For the same compound, in test [2], the “Selectivity hEP2/hEP4” value was “xxx (xxx > 100)”.

For the compound `COCCNC(=O)c1ccc2nn(CC3CCN(C(=O)c4ccc(Oc5cccc(F)c5)cc4)CC3)cc2c1C` [Example 361, 2-({1-[4-(3-fluorophenoxy)benzoyl]piperidin-4-yl}methyl)-N-(2-methoxyethyl)-4-methyl-2H-indazol-5-carboxamide], the “Selectivity hEP2/hDP” value at human PGD receptor is “xxx (xxx > 100)”. Besides, the half-inhibitory concentration (IC50) in test [1] amounted to 5.11 nM. Further, in test [2], the “Selectivity hEP2/hEP4” value is listed as “xxx (xxx > 100)”.

`COCCNC(=O)c1ccc2nn(CC3CCN(C(=O)c4ccc(-c5cncc(Cl)c5)cc4)CC3)cc2c1C` [Example 385, 2-({1-[4-(5-chloropyridin-3-yl)benzoyl]piperidin-4-yl}methyl)-N-(2-methoxy-ethyl)-4-methyl-2H-indazol-5-carboxamide]: at human PGD receptor, the “Selectivity hEP2/hDP” value was “xxx (xxx > 100)”. For the same compound, the IC50 in test [1] came out at 13.1 nM. Also, in test [2], the “Selectivity hEP2/hEP4” value is “xxx (xxx > 100)”.

Turning to `COCCNC(=O)c1cc2cn(CC3CCN(C(=O)c4ccc(Cl)c(C(F)(F)F)c4)CC3)nc2cc1C` [Example 209, 2-({1-[4-chloro-3-(trifluoromethyl)benzoyl]piperidin-4-yl}methyl)-N-(2-methoxyethyl)-6-methyl-2H-indazol-5-carboxamide], the “Selectivity hEP2/hDP” value at human PGD receptor was “xxx (xxx > 100)”. In addition, the half-maximal inhibitory concentration (IC50) in test [1] was determined as 25.1 nM. The “Selectivity hEP2/hEP4” value in test [2] is on record as “xxx (xxx > 100)”.

Take `Cc1cc2nn(CC3CCN(C(=O)c4ccc(C(F)(F)F)cc4)CC3)cc2cc1C(=O)NCCN1CCOCC1` [Example 79, 6-methyl-N-(2-morpholinoethyl)-2-({1-[4-(trifluoro-methyl)benzoyl]-piperidin-4-yl}-methyl)-2H-indazol-5-carboxamide]: the “Selectivity hEP2/hDP” value at human PGD receptor is given as “xxx (xxx > 100)”. Besides, in test [1], the IC50 was determined as 125 nM. For the same compound, the “Selectivity hEP2/hEP4” value in test [2] is recorded as “xxx (xxx > 100)”.

For `Cc1cc2nn(CC3CN(C(=O)c4ccc(-c5ccc(F)cc5)cc4)C3)cc2cc1C(=O)NCC(F)(F)F` [Example 203, 2-({1-[(4′-fluorobiphenyl-4-yl)carbonyl]azetidin-3-yl}methyl)-6-methyl-N-(2,2,2-trifluoroethyl)-2H-indazol-5-carboxamide], at human PGD receptor, the “Selectivity hEP2/hDP” value was “xxx (xxx > 100)”. For the same compound, the IC50 in test [1] turned out to be 85.7 nM. For the same compound, the “Selectivity hEP2/hEP4” value in test [2] is listed as “xxx (xxx > 100)”.

Regarding `Cc1cc2nn(CC3CCN(C(=O)c4ccc(S(F)(F)(F)(F)F)cc4)CC3)cc2cc1C(=O)NCCN1CCOCC1` [Example 77, 6-methyl-N-(2-morpholinoethyl)-2-({1-[4-(pentafluoro-λ^6-sulphanyl)benzoyl]piperidin-4-yl}methyl)-2H-indazol-5-carboxamide], the “Selectivity hEP2/hDP” value on human PGD receptor is on record as “xxx (xxx > 100)”. In addition, the IC50 in test [1] is 53.9 nM. Further, the “Selectivity hEP2/hEP4” value in test [2] is listed as “xxx (xxx > 100)”.

Turning to `COCCNC(=O)c1ccc2nn(CC3CN(C(=O)c4ccc(Oc5ccc(F)cc5)cc4)C3)cc2c1C` [Example 159, 2-({1-[4-(4-fluorophenoxy)benzoyl]azetidin-3-yl}methyl)-N-(2-methoxyethyl)-4-methyl-2H-indazol-5-carboxamide], on human PGD receptor, the “Selectivity hEP2/hDP” value is listed as “xxx (xxx > 100)”. Moreover, the concentration for half-maximal inhibition (IC50) in test [1] was 6.24 nM. For the same compound, in test [2], the “Selectivity hEP2/hEP4” value is “xxx (xxx > 100)”.

With `Cc1cc2nn(CC3CN(C(=O)c4ccc(OC(F)(F)F)cc4)C3)cc2cc1C(=O)NCCOC(F)(F)F` [Example 196, 6-methyl-2-({1-[4-(trifluoromethoxy)benzoyl]azetidin-3-yl}methyl)-N-[2-(trifluoromethoxy)ethyl]-2H-indazol-5-carboxamide], the “Selectivity hEP2/hDP” value at human PGD receptor is “xxx (xxx > 100)”. Further, in test [1], the IC50 stood at 50.8 nM. Further, the “Selectivity hEP2/hEP4” value in test [2] was “xxx (xxx > 100)”.

Values taken from patent US9062041B2 (Bayer Intellectual Property GmbH, priority 2011, dated 2015).
